Values quoted from earlier work in patent US6660719B2, “Inhibiting T-Cell proliferation” (BioCryst Pharmaceuticals Inc., priority 2001, dated 2003).
Read-outs that look alike come from different tables or passages of the source.

Columns and labels:
[1] = tested on: peripheral blood lymphocytes; conditions: 2′-deoxyguanosine alone, without PNP inhibition; species not given
Molt-4 cells = conditions: given with 2′-deoxyguanosine
CCRF-CEM cells = conditions: given with 2′-deoxyguanosine
[2] = tested on: peripheral blood lymphocytes; conditions: given to rats with 2′-deoxyguanosine
[3] = tested on: peripheral blood lymphocytes; conditions: given to dogs with 2′-deoxyguanosine
T-cells = conditions: rats; given with 2′-deoxyguanosine

For `Nc1nc2c(ncn2[C@H]2C[C@H](O)[C@@H](CO)O2)c(=O)[nH]1` [2′-deoxyguanosine], the “cell counts (lymphopenia)” value [1] is listed as “did not significantly decrease cell counts”.

In the case of `Nc1nc2nc(N)[nH]c2c(=O)[nH]1` [8-Aminoguanine], the “proliferation of human T-cells in cultures” value (Molt-4 cells) is listed as “inhibits the proliferation” and the “proliferation of human T-cells in cultures” value (CCRF-CEM cells) is listed as “inhibits the proliferation”.

For `Nc1nc2c(nc(N)n2[C@@H]2O[C@H](CO)[C@@H](O)[C@H]2O)c(=O)[nH]1` [8-Aminoguanosine], the peripheral blood lymphocytes [2] is listed as “profound fall”, the peripheral blood lymphocytes [3] is listed as “profound fall” and the “levels of 2′-deoxyguanosine triphosphate (dGTP) in T-cells” value (T-cells) is listed as “increased levels”.
